Source: ChEMBL document CHEMBL1144501, “Synthesis, characterization and biological activity of complexes of lanthanum(III) with 2-(1'-phenyl- 2'-carboxyl-3'-aza-n-butyl)-1,10-phenanthroline and 2-(1'-p-phenol-2'-carboxyl-3'-aza-n-butyl)-1,10-phenanthroline” (Bioorg Med Chem, 2007)

Key:
Assay type in all cases: cell-based
HL-60 = test: Cytotoxicity against human HL60 cells after 72 hrs; conditions: HL-60, 72 h
[1] = Cytotoxicity against human BGC823 cells after 72 hrs; conditions: BGC-823, 72 h
[2] = Cytotoxicity against human Bel7402 cells after 72 hrs; conditions: Bel-7402, 72 h
[3] = Cytotoxicity against human PC-3MIE8 cells after 72 hrs; conditions: PC-3MIE8, 72 h
HeLa = test: Cytotoxicity against human HeLa cells after 72 hrs
MDA-MB-435 = test: Cytotoxicity against human MDA-MB-435 cells after 72 hrs; conditions: MDA-MB-435, 72 h

Measured: IC50

O=C(O)C(Cc1ccccc1)NCc1ccc2ccc3cccnc3c2n1 (configuration not stated)
> 100 µM: all assays above

O=C(O)C(Cc1ccc(O)cc1)NCc1ccc2ccc3cccnc3c2n1 (configuration not stated)
> 100 µM: all assays above
